Results from article PMC9504029, “Identification and Characterization of Novel Small-Molecule SMOX Inhibitors” (Medical Sciences, 2022).

Key:
recombinant human MAO-B = target: T1, recombinant human MAO-B (Homo sapiens, UniProt P27338); assay: MAO-Glo assay, MAO-B; type: biochemical; details: read-out: % Inhibition at 20 μM ± SD, MAO-B
T1 construct: purchased Sigma-Aldrich M7441-1VL
T1 sequence (P27338 1-520): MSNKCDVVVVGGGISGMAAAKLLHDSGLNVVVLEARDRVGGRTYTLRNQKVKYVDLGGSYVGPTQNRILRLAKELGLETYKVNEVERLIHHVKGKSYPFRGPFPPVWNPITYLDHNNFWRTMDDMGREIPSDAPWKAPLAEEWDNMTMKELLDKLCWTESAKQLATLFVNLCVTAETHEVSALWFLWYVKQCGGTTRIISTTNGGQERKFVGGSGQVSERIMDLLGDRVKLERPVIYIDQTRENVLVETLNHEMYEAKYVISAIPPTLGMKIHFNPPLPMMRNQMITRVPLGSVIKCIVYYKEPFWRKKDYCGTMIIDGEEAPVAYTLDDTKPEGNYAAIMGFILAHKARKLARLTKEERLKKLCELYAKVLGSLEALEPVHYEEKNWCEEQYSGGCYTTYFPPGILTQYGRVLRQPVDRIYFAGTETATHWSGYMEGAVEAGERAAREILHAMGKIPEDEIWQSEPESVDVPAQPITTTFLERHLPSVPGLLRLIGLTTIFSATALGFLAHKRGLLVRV
Experimental: (§1) To determine selectivity, the compounds were tested for activity against the related FAD-dependent amine oxidase enzymes LSD1, MAO-A, and MAO-B. LSD1 activity was assessed using a commercially available assay kit (#700120, Cayman Chemical, Ann Arbor, MI, USA), in which the enzyme activity was determined by the horseradish peroxidase-catalyzed oxidation of 10-acetyl-3,7-dihydroxyphenoxazine to the highly fluorescent resorufin in response to H2O2 production. Monoamine oxidase activity was determined using recombinant human MAO-A and MAO-B (M7316-1VL & M7441-1VL, Sigma-Aldrich, St. Louis, MO, USA) and a commercially available assay kit (#V1401, MAO-Glo, Promega, Madison, WI, USA), which utilizes the MAO-catalyzed oxidation of a luciferin derivative coupled with esterase activity to produce luminescence. Fluorescent and luminescent readout was obtained using a SpectraMax M5 plate reader (Molecular Devices) equipped with SOFTmax PRO 7.0.3 software. […] Values were reported as mean % inhibition ± SD of triplicate assay wells normalized to background activity and compared to the vehicle control.

recombinant human MAO-A = target: T2, recombinant human MAO-A (Homo sapiens, UniProt P21397); assay: MAO-Glo assay, MAO-A; type: biochemical; details: read-out: % Inhibition at 20 μM ± SD, MAO-A
T2 construct: purchased Sigma-Aldrich M7316-1VL
T2 sequence (P21397 1-527): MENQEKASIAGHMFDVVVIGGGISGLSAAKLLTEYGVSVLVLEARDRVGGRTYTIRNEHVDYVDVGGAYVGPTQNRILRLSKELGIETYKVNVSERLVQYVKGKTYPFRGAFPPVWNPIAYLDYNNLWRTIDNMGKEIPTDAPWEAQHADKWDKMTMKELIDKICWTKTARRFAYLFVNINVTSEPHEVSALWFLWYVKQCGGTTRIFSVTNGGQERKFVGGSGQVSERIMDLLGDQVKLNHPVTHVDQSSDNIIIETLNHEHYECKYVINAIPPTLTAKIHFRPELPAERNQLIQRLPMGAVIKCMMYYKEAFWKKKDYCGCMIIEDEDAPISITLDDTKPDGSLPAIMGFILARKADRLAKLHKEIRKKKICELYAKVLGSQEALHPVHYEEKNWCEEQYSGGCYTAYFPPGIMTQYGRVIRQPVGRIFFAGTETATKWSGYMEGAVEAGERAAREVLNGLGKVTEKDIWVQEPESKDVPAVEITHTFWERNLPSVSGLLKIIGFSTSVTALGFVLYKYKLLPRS
Experimental: as §1

`Cc1cc([C@H](O)CNCCCNC(=N)N)cc(C)c1O` [Compound 6] gave an inhibition at 20 µM (recombinant human MAO-B) of -13.7 ± 3.8% and an inhibition at 20 µM (recombinant human MAO-A) of -6 ± 2.1%.
